Test system: CRABP-2
Assay: CRABP-2 protein expression in fibroblasts by Western immuno-blotting and densitometric scanning
Assay type: cell-based, Human
Conditions: for As % of control: control as 100%
Procedure: Dried chick pea was purchased from local markets and powdered in a dry grinder. The alcoholic extract of chick pea was prepared by stirring 1 gram of the dry chick pea powder in 10 ml of ethanol for 4 to 24 hrs at room temperature. The extract was clarified by filtration and centrifugation, to obtain a 10% extract of chick pea in ethanol.
Human adult fibroblasts obtained from sun-protected inner arm of […] were used in this. Cells were grown in 1:1 DMEM/Hams F12 media containing 10% FBS, maintained at 37 C. in a 5% CO2 atmosphere under normal atmospheric oxygen tension. Third passage adult fibroblasts were grown in DMEM media with 10% FBS in 12-well plates at a seeding density of 40,000 cells/ml/well. The cells at 80% confluence were rinsed in serum free and phenol red free (PRF) DMEM media twice. Pre-treatment with chick pea extract for 4 hours was conducted and then dosed with retinoids and was incubated for 48 hours. After the incubation, the wells were washed twice with 1×PBS and the cell monolayer was harvested in 100 μI cell lysis buffer (contains 1×PBS, 1% TritonX, 0.5% sodium deoxycholate, 0.1% SDS containing protease inhibitor (10 mg/ml PMSF in isopropanol, 10 μl/ml)). The suspension was spun at 14000 rpm for 10 minutes, the supernatant collected and an aliquot of this supernatant was used for protein quantification. Protein concentration was determined using Pierce protein kit. The remainder of 100 μl supernatant (cell lysate) was denatured in a mixture of 40 μl sample buffer (NOVEX) and 0.5% Beta mercaptoethanol (BME) and by boiling the sample for 5 minutes. Equal amount of protein was then loaded onto 16% Tris-glycine gels for protein analysis by SDS page and Western Immuno-blotting for CRABP-2 protein expression.
To measure the levels of CRABP-2 in the fibroblasts prepared as described above, the cell supernatant was re-suspended in 4×sample buffer and 0.5% BME, boiled for 5 minutes and used for western blotting. Equal amounts of protein were loaded onto 16% Tris-glycine gels for CRABP-2 protein analysis by SDS page and Western Immuno-blotting. The gels were transferred to nitrocellulose blots and Western Blotting was carried out using monoclonal antibodies to CRABP-2 according to standard procedures. The CRABP-2 protein band was visualized in the Western Blots using the chemiluminescence system obtained from Santa Cruz Biotechnology (Santa Cruz, Calif.). The bands in the film were quantitated by densitometric scanning, the data from triplicate samples were calculated as % of control and expressed in the following tables as % increase over control (with control as 100%) +/−SD of triplicates.

[1] = Example 1: 100 nM retinoids and 0.1 μl of a 10% chick pea extract, 4 h extract pre-treatment, 48 h incubation, +/- SD of triplicates
[2] = Example 1: 100 nM retinoids and 0.1 μl of a 10% chick pea extract, +/- SD of triplicates
[3] = Example 1: 100 nM retinoids and 0.1 μl of a 10% chick pea extract
[4] = Example 3: 500 nM retinoids and 0.1 μl of a 10% chick pea extract, +/- SD of triplicates
[5] = Example 3: 500 nM retinoids and 0.1 μl of a 10% chick pea extract
[6] = second table headed Example 3: 500 nM retinoids and 0.1 μl of a 10% chick pea extract, +/- SD of triplicates
[7] = second table headed Example 3: 500 nM retinoids and 0.1 μl of a 10% chick pea extract

SMILES	CRABP-2 levels [1]	CRABP-2 levels [2]	As % of control [3]	As % of control [2]	CRABP-2 levels [4]	As % of control [5]	CRABP-2 levels [6]	As % of control [7]
CCCCCCCCCCCCCCCC(=O)OC/C=C(C)/C=C/C=C(C)/C=C/C1=C(C)CCCC1(C)C [Retinyl Palmitate, retinyl palmitate]	1.84 +/− 0.16	1.84 +/− 0.16	262 +/− 24 % of control	262 +/− 24 % of control	0.94 +/− 0.31	135 +/− 45 % of control	0.94 +/− 0.31	135 +/− 45 % of control
CC1=C(/C=C/C(C)=C/C=C/C(C)=C/CO)C(C)(C)CCC1 [Retinol]	2.02 +/− 0.23	2.02 +/− 0.23	289 +/− 34 % of control	289 +/− 34 % of control	0.72 +/− 0.04	102 +/− 6 % of control	0.72 +/− 0.04	102 +/− 6 % of control
CCCCC/C=C\C/C=C\CCCCCCCC(=O)OC/C=C(C)/C=C/C=C(C)/C=C/C1=C(C)CCCC1(C)C [Retinyl linoleate, retinyl linoleate]	2.06 +/− 0.09	2.06 +/− 0.09	294 +/− 12 % of control	294 +/− 12 % of control	0.81 +/− 0.16	115 +/− 23 % of control	0.81 +/− 0.16	115 +/− 23 % of control
CC(=O)OC/C=C(C)/C=C/C=C(C)/C=C/C1=C(C)CCCC1(C)C [Retinyl acetate, retinyl acetate]	1.44 +/− 0.26	1.44 +/− 0.26	206 +/− 37 % of control	206 +/− 37 % of control	1.65 +/− 0.49	235 +/− 70 % of control	1.65 +/− 0.49	235 +/− 70 % of control

Reference: US6399083B1, “Cosmetic compositions containing chick pea extract and retinoids” (Unilever Home & Personal Care USA, division of Conopco, Inc., priority 1999, dated 2002)
